From patent US8853226B2, “Tricyclic compounds as modulators of TNF-α synthesis and as PDE4 inhibitors” (High Point Pharmaceuticals, LLC, priority 2008, dated 2014)
Counter-ions that a name gives are not always drawn.

Columns and labels:
PDE4B2 = PDE4B2 (Homo sapiens (Human), UniProt Q07343); assay: PDE4 Inhibition Assay (TR-FRET IMAP, FAM-cAMP substrate); format: biochemical; conditions: 100 nM cAMP, 30° C., 90 minutes
Protocol: (§1) A TR-FRET-based phosphodiesterase assay kit from “Molecular Devices” was used to test whether these compounds were indeed direct inhibitors of the PDE4 enzyme. Using Roflumilast as a positive control, compounds of the present invention were tested against fluorescein-labeled cAMP substrate. The principle of the assay is based on the binding of a nucleotide monophosphate generated upon cAMP conversion to 5′ AMP by PDE to an “IMAP binding reagent”, which in turn is also ligated to a separate complex carrying terbium (Tb)-donor molecule. Proximity of the fluoreceinated 5′AMP to the Tb donor generates Fluorescence Resonance Energy Transfer. A PDE inhibitor will reduce the conversion of cAMP to 5′AMP, thus reducing monophosphate that can bind to the IMAP binding reagent and reduce the resulting FRET signal.
(§2) The assay buffer was prepared by diluting 5× supplied Tween-based buffer in 1:5 in water to make 1× buffer. Add desired additive to buffer (DTT or MnCl2). In a separate 96-well polypropylene plate, compound dilutions were prepared in assay buffer. Separate microcentrifuge tubes were prepared of PDE4B and PDE4D according to assay template—in assay buffer. The tubes were kept on ice. The enzyme concentration shown on the template were diluted by 1:4. FAM-cAMP substrate solution was prepared according to assay template. 5 μl compound was transferred from polypropylene plate into black 384-well plate. This plate was centrifuged briefly to make sure all 5 μl is on the bottom. Up to 80 μl of prepared PDE4B enzyme solution was transferred into alternate wells on row ‘N’ of 384-well plate starting from cell N1. Up to 80 μl of prepared PDE4D enzyme solution was transferred into alternate wells on row ‘O’ of 384-well plate, starting from cell O2. cAMP substrate solution was transferred into bottom row of separate 96-well plate. 5 μl of enzyme solution from the “reservoir” row (N or O) was transferred to each of the wells containing compounds, per layout map. Next, 10 μl of cAMP substrate was transferred to these wells. The order of substrate-first or enzyme-first can be switched depending on what is optimal. The final cAMP concentration was 100 nM in the reaction. 20 μl of assay buffer was pipetted into 4 separate wells—these are the blanks. The plate was sealed with an aluminum strip and incubated at 30° C. for 90 minutes. A TR-FRET solution was prepared. […]. 25 μl ( 1/800 of 20 ml) of binding beads was added to this and mix by inverting. 60 μl of this mixture was pipetted into 2 of the wells containing the “blank” assay buffer. Next, 49.7 μl ( 1/400 of remaining volume) of Tb donor solution was added to the remaining TR-FRET solution and mixed by inverting. 60 μl of this solution was pipetted into remaining 2 “blank” assay buffer-containing wells. The TR-FRET solution was poured into a pipette boat and a multichannel pipette was used to drop 60 μl of solution into all assay wells. The wells were covered with a foil strip and incubated for at least 3 hours or overnight protected from light (e.g. in a drawer) at room temperature. The plate was read on the Envision Reader: Emission 1: 520/Emission 2: 486/Exc: 340. Mirror: Umbelliferone (UV).

PDE4D = PDE4D (Homo sapiens (Human), UniProt Q08499); assay: as above; format: biochemical; conditions: 100 nM cAMP, 30° C., 90 minutes
Chain of PDE4D (Q08499 whole entry, species assumed): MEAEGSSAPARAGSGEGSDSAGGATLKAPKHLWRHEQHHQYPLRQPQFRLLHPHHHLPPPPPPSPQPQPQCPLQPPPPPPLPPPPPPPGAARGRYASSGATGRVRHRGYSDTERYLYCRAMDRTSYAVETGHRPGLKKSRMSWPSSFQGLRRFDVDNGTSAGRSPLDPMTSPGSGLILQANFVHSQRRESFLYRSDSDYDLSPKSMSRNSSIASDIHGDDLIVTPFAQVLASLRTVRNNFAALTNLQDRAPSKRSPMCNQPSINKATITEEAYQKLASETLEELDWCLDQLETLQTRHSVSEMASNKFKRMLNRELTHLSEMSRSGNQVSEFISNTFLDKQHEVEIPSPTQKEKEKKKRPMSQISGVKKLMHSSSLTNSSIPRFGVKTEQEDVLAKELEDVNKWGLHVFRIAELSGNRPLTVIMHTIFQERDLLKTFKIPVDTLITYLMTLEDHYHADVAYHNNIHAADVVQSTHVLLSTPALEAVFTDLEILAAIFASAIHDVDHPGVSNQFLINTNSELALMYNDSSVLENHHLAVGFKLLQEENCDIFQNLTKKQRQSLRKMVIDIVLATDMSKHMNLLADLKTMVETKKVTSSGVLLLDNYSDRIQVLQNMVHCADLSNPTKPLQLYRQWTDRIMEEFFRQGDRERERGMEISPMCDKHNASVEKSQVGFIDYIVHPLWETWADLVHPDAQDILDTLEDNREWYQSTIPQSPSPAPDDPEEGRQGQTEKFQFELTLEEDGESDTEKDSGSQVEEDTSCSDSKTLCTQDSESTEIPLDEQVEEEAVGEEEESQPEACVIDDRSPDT
Protocol: as §1, §2

Chain of PDE4B2 (Q07343 other isoform, or with tags, fused parts or gaps, species assumed): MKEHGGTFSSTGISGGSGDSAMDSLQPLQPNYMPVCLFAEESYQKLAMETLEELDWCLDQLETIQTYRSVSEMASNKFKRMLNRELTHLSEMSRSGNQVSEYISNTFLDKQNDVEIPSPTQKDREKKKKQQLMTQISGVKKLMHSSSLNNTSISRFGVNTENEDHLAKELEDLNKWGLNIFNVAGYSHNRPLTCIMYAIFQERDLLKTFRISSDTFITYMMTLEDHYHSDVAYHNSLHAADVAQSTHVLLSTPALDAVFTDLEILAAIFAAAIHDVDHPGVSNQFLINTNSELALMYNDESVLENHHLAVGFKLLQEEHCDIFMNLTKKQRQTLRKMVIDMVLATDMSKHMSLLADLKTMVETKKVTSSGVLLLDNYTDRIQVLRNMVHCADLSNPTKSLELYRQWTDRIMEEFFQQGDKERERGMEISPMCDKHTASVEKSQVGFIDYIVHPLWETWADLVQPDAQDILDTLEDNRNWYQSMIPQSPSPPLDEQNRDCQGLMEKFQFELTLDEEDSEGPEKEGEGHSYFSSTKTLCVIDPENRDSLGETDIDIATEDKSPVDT

| SMILES | IC50 (PDE4B2) [nM] | IC50 (PDE4D) [nM] |
| --- | --- | --- |
| CCn1c(=O)c2cnc3c(Cl)cccc3c2n(C2CCCC2)c1=O [Example 30, 7-Chloro-1-cyclopentyl-3-ethyl-1H-pyrimido[5,4-c]quinoline-2,4-dione] | 17000 | 25000 |
| CCCc1cccc2c1ncc1c(=O)n(CC)c(=O)n(C3CCCC3)c12 [Example 32, 1-Cyclopentyl-3-ethyl-7-propyl-1H-pyrimido[5,4-c]quinoline-2,4-dione] | 25000 | 25000 |
| CCn1c(=O)c2cnc3c(C(C)C)cccc3c2n(C2CCCC2)c1=O [Example 33, 1-Cyclopentyl-3-ethyl-7-isopropyl-1H-pyrimido[5,4-c]quinoline-2,4-dione] | 12400 | 25000 |
| COc1cccc2c1ncc1c(=O)n(-c3cc(C)cs3)c(=O)n(C3CCCC3)c12 [Example 51, 1-Cyclopentyl-7-methoxy-3-(4-methyl-thiophen-2-yl)-1H-pyrimido[5,4-c]quinoline-2,4-dione] | 126 | 616 |
| COc1cccc2c1ncc1c(=O)n(-c3cccc(C)c3)c(=O)n(C3CCCC3)c12 [Example 54, 1-Cyclopentyl-7-methoxy-3-m-tolyl-1H-pyrimido[5,4-c]quinoline-2,4-dione] | 78 | 338 |
| COc1cccc2c1ncc1c(=O)n(-c3ccc4c(c3)OCO4)c(=O)n(C3CCCC3)c12 [Example 84, 3-Benzo[1,3]dioxol-5-yl-1-cyclopentyl-7-methoxy-1H-pyrimido[5,4-c]quinoline-2,4-dione] | 513 | 827 |
| COc1cccc2c1ncc1c(=O)n(-c3cccc(Cl)c3)c(=O)n(C3CCN(S(C)(=O)=O)CC3)c12 [Example 92, 3-(3-Chloro-phenyl)-1-(1-methanesulfonyl-piperidin-4-yl)-7-methoxy-1H-pyrimido[5,4-c]quinoline-2,4-dione] | 68 | 151 |
| COc1cccc2c1ncc1c(=O)n(-c3cccc(Cl)c3)c(=O)n([C@H]3CC[C@H](C(=O)O)CC3)c12 [Example 103, Trans-4-[3-(3-Chloro-phenyl)-7-methoxy-2,4-dioxo-3,4-dihydro-2H-pyrimido[5,4-c]quinolin-1-yl]-cyclohexanecarboxylic acid.hydrochloride] | 17 | 55 |
| COc1cccc2c1ncc1c(=O)n(-c3cccc(Cl)c3)c(=O)n([C@@H]3CCN(S(C)(=O)=O)C3)c12 [Example 115, 3-(3-Chloro-phenyl)-1-((R)-1-methanesulfonyl-pyrrolidin-3-yl)-7-methoxy-1H-pyrimido[5,4-c]quinoline-2,4-dione] | 49 | 163 |
| COc1cccc2c1ncc1c(=O)n(-c3cccc(Cl)c3)c(=O)n([C@H]3CCN(S(C)(=O)=O)C3)c12 [Example 118, 3-(3-Chloro-phenyl)-1-((S)-1-methanesulfonyl-pyrrolidin-3-yl)-7-methoxy-1H-pyrimido[5,4-c]quinoline-2,4-dione] | 80 | 206 |
| CCS(=O)(=O)N1CCC(n2c(=O)n(-c3cccc(Cl)c3)c(=O)c3cnc4c(OC)cccc4c32)CC1 [Example 121, 3-(3-Chloro-phenyl)-1-(1-ethanesulfonyl-piperidin-4-yl)-7-methoxy-1H-pyrimido[5,4-c]quinoline-2,4-dione] | 26 | 59 |
| COc1cccc2c1ncc1c(=O)n(-c3cccc(Cl)c3)c(=O)n([C@H]3CC[C@H](NS(C)(=O)=O)CC3)c12 [Example 127, N-{4-[(S)-3-(3-Chloro-phenyl)-7-methoxy-2,4-dioxo-3,4-dihydro-2H-pyrimido[5,4-c]quinolin-1-yl]-trans-cyclohexyl}-methanesulfonamide] | 25 | 73 |
